Test results: patent publication US10292949B2, “Pharmaceutical composition comprising rimeporide for treating diseases associated with insulin resistance and β-cell dysfunction” (Merck Patent GmbH, priority 2008, dated 2019)

Assays:
Assay type in all cases: in vivo, rat
obese Zucker fa/fa rats = test: Pharmacological Study Report II: 2H-glucose disposal test (2H-GDT) on Days 0, 14 and 28
Experimental: (§1) Thirty-six obese Zucker fa/fa and six lean Zucker fa/? male rats obtained from Charles River, were housed under normal vivarium conditions on a 12 hour light/dark cycle. The rats were kept two to a cage with food and water available ad lib, except during the weekly, 4 hour fasts. Water continued to be available during these fasts.
(§2) Compound A corresponds to Cariporide. Compound B corresponds to 2-Methyl-4,5-di-(methylsulfonyl)-benzoyl-guanidine hydrochloride hydrate. Compounds A and B were supplied in powder form by Merck Serono. Drugs were incorporated into a pelleted diet (LabDiet, 5001) by Research Diets, Inc (New Brunswick, N.J.) at concentrations of 0.44 g/kg or 0.88 g/kg of diet to yield approximate doses of 40 or 80 mg/kg. The concentration was calculated based on the assumption that a 300 g rat would eat about 30 g/d of chow. The same chow, but without drug, was fed to rats of both the lean and fa/fa control group animals.
(§3) • 1. ZF rats (fa/fa) (n=6) chow without drug • 2. ZF rats (fa/fa) (n=6) compound A (40 mg/kg/day) • 3. ZF rats (fa/fa) (n=6) compound A (80 mg/kg/day) • 4. ZF rats (fa/fa) (n=6) compound B (40 mg/kg/day) • 5. ZF rats (fa/fa) (n=6) compound B (80 mg/kg/day) • 6. lean Zucker rats (fa/?) (n=6) chow without drug Dosing Regime
Insulin sensitivity (SI) and pancreatic compensation (PC) were measured by conducting ^2H-Glucose disposal test on Days 0, 14 and 28.
Time −4 h: Before the fast was begun on the morning of the GDT, a blood sample was taken to determine the random glucose level (see above). An additional blood sample was collected to determine the baseline ^2H2O and ^18O enrichments. The rats were weighed and the 4 h fast was begun. Water was available during the fast.
Time −3 h: One 1 hour after the start of the fast, 1.75 mg/g body weight of 10% H2^18O was administered by oral gavage (^2H2O-free H2O^18 water; 10% ^18O atom from Spectra; Cat. No 51350).
Time 0: 4 hours after the start of the fast, the blood glucose and insulin levels were determined. Rats received 4 ml/kg of a 50% glucose solution (comprised of 25% [6,6-^2H2] glucose and 25% D-glucose) by oral gavage.
At times 15, 30, 60 and 90 min post glucose challenge, blood glucose concentrations were again determined by a glucometer reading from tail vein blood. Additional blood samples were collected for insulin determinations. At 60 and 90 min post glucose challenge, whole blood was collected to determine the ^2H2O and H2^18O enrichments. All blood samples were centrifuged and the plasma was stored at −20° C. until assayed. The deuterium and oxygen-18 isotope enrichments of body water were determined by IRIS analysis of the water distillate of the plasma samples.
^2H2O enrichment was converted to mmol by multiplying enrichment (^2H2O APE) by the total body water pool size and dividing by 20 (molecular weight of ^2H2O). Total ^2H2O produced was calculated as the percent of the [6,6-^2H2] glucose load administered. Plasma insulin and glucose areas under the curve (AUC 60 min) were calculated using the trapezoidal method (GraphPad Prism).
Two parameters were calculated from the ^2H-GDT: • 1. Insulin sensitivity index (SI)=^2H2O production (% load)/(glucose AUC×insulin AUC). • 2. Pancreatic compensation (PC)=the absolute ^2H2O production as a percent of total [6,6-^2H2] glucose load (% load)/the integrated glucose response (glucose AUC; to correct for insulin-independent utilization). Statistics
Overall results of glucose and insulin measures were analyzed by a 2 way repeated measures ANOVA using drug and time (repeated) as factors. The primary analysis was followed by Bonferroni posttests to compare all groups. Data are considered significant at p<0.05. AUC 60 min values for glucose and insulin were analyzed by 1 way ANOVA followed by Tukey's comparison of all groups.

[1] = Pharmacological Study Report II: body weight and food intake; settings: for Average food consumption, Week 1 / Average food consumption, Week 2 / Average food consumption, Week 3 / Average food consumption, Week 4: fa/fa rats, average +/- SD
Experimental: as §1, §2
One week prior to the start of the study, all rats were weighed. After a 4 hour fast, a blood sample was obtained for the determination of blood glucose, insulin, and glycosylated hemoglobin levels (HbA1c). Animals were then sorted on the basis of these parameters into the groups listed below. Rats were eight weeks of age at the onset of treatment.
as §3
Treatment appropriate chow was continuously available for 4 weeks except during scheduled 4 h fasts conducted once per week.
individual body weights were determined once per week. Average food intake per cage was also determined once per week and the individual rat consumption was calculated by dividing the cage average by 2 (rats housed 2/cage).

[2] = system: Obese, insulin resistant ZF (fa/fa) rats; test: Pharmacological Study Report I: random and fasting blood glucose and plasma insulin levels; settings: Compound A 150 mg/kg gavage twice daily, Compound B 40 mg/kg/day in chow
Experimental: (§4) Obese, insulin resistant ZF (fa/fa) rats, which are treated from the age of 8-12 weeks, were used as IR model. Rats were housed with a 12-h light/dark cycle and free access to food and water unless otherwise noted. Studies were approved by the Institutional Animal Care and Use Committee. There were a total of 18 animals in the study (8 week-old males, provided by Charles River). Animals were randomized into 3 groups (vehicle group, Compound A group, Compound B group, n=6 per group) based on random glucose level at the beginning of the study: • Group 1: ZF rats (fa/fa) (n=6), compound A (150 mg/kg via gavage) • Group 2: ZF rats (fa/fa) (n=6), compound B (40 mg/kg/day as admixture to the chow) • Group 3: ZF rats (fa/fa) (n=6), vehicle treatment (control chow, vehicle gavage)
(§5) Group 1 and 3 animals were treated with compound A or vehicle (water) for 4 weeks (from age 8-12 weeks) via oral gavage, twice daily. Chow containing compound B was fed to Group 2 ad lib. Group 1 and Group 3 were fed with chow without compound B ad lib.
Random morning blood was withdrawn from ad libitium fed rats by a small cut in the tip of the tail. Blood was collected in heparinized tubes. Blood glucose concentrations were measured as per study design using a One-Touch glucometer (Lifescan Inc, Milptias, Calif.). Blood samples were placed on ice and centrifuged, and plasma stored at −20° C. until insulin was assayed. Rat plasma insulin concentration was measured with rat-specific ELISA kit (Crystal Chem Inc, Downers Grove, Ill.).
Random morning blood glucose levels were measured weekly between 9-11 a.m.
At the end of the study, rats were fasted for 4 hours and glucose and insulin level were measured.

[3] = Pharmacological Study Report I: body weight of ZF (fa/fa) rats during 4 weeks of treatment; settings: age 8-12 weeks, Compound A 150 mg/kg gavage twice daily, Compound B 40 mg/kg/day in chow
Experimental: as §4, §5

[4] = 40 and 80 mg/kg (neither dose), 4 weeks

Compound: CC(C)c1ccc(C(=O)NC(=N)N)cc1S(C)(=O)=O [Compound A, Cariporide]
- Glucose level at the 90 min time point of the 2H-GDT vs fa/fa vehicle (obese Zucker fa/fa rats; 40 mg/kg, 4 weeks of treatment): elevated above that of the fa/fa vehicle treated rats
- Blood glucose and insulin concentrations in response to glucose challenge (2H-GDT) (obese Zucker fa/fa rats; 4 weeks after start of treatment, 40 and 80 mg/kg): continued to have elevated
- Glucose tolerance (obese Zucker fa/fa rats; 4 weeks of treatment): did not improve
- Glucose levels (either fasting or in response to challenge) (obese Zucker fa/fa rats; [4]): Neither dose of Compound A significantly improved
- Insulin sensitivity (SI) (obese Zucker fa/fa rats; [4]): Neither dose of Compound A significantly improved
- Pancreatic compensation (PC) (obese Zucker fa/fa rats; [4]): Neither dose of Compound A significantly improved
- Glucose or insulin response to glucose challenge (2H-GDT) (obese Zucker fa/fa rats; after 2 weeks of treatment, 40 and 80 mg/kg): did not affect
- Average weekly food intake vs chow fed fa/fa controls ([1]; Zucker fa/fa rats, 4 weeks, 40 or 80 mg/kg in chow): did not differ significantly
- Average food consumption, Week 1 ([1]; 40 mg/kg in chow): 32.2 +/− 3.5 grams
- Average food consumption, Week 2 ([1]; 40 mg/kg in chow): 33.1 +/− 2.6 grams
- Average food consumption, Week 3 ([1]; 40 mg/kg in chow): 33.9 +/− 2.4 grams
- Average food consumption, Week 4 ([1]; 40 mg/kg in chow): 34.9 +/− 2.7 grams
- Average food consumption, Week 1 ([1]; 80 mg/kg in chow): 34.3 +/− 2.5 grams
- Average food consumption, Week 2 ([1]; 80 mg/kg in chow): 32.8 +/− 4.3 grams
- Average food consumption, Week 3 ([1]; 80 mg/kg in chow): 32.3 +/− 4.5 grams
- Average food consumption, Week 4 ([1]; 80 mg/kg in chow): 30.8 +/− 5.6 grams
- Random morning blood glucose level vs vehicle group ([2]; 4 weeks): trended towards lower glucose level
- Fasting glucose levels, post vs pre treatment ([2]; 4 h fast, after 4 weeks): trended towards lower values post treatment
- Fasting insulin levels compared to pre-treatment levels ([2]; 4 h fast, after 4 weeks): significantly lower
- Body weight, difference among vehicle- and compound-treated groups [3]: no significant differences
